Measured values as given in patent EP0804408B1, “NOVEL 4-SUBSTITUTED 2,6-DI-TERT-BUTYLPHENOL COMPOUNDS, PHARMACEUTICAL COMPOSITIONS CONTAINING SAME AND PREPARATION METHOD THEREFOR” (priority 1994, dated 1996).

System: macrophages de lignée RAW264.7
Assay: Toxicity test on RAW264.7 macrophages (crystal violet and neutral red staining)
Assay type: cell-based, murins
Conditions: for DO/ml moyenne sur 4 puis ± écart type / Pourcentage de survie par rapport au témoin cellules en milieu seul: 24 h; for hautement toxique jusqu'à: final conclusion
Experimental: La toxicité de AVF1 pour les macrophages de lignée RAW264.7 (ATCC TIB 71) utilisés pour le test iNOS a été déterminée dans l'expérience préliminaire suivante :
Les macrophages de lignée RAW264.7 ont été distribués dans des séries de 4 puits dans une plaque à 96 puits à raison de 1,5 x 10^5/100 µl/ml dans du milieu de culture (D-NEM sans rouge de phénol, Gibco) additionné de 0,2 % d'antibiotique, 1% de L-glutamine et 5% de sérum de veau foetal décomplémenté (produits pour celuture cellulaire Eurobio).
Après 18 heures, différentes concentrations de raison […] de AVF1 ont été ajoutées sous 100 µl de façon à obtenir les concentrations finales de 10^0 à 10^-10%. Après 24 heures de culture supplémentaire, les cellules ont été observées au microscope et colorées selon deux techniques différentes permettant d'obtenir un pourcentage respectivement de cellules adhérentes au plastique (coloration au violet cristal) et de cellules vivantes (coloration au rouge neutre) : • Dans la première technique, les cellules sont lavées avec du PBS + Ca^2+ + Mg^2+ (Gibco) afin d'éliminer les éventuelles cellules mortes flottantes et de maintenir les cellules vivantes sur le plastique. Le colorant (1% de violet cristal, R.A.L. 20% de méthanol, Merck) est ajouté sous 50 µl/puits et laissé 20 minutes à température ambiante. Après plusieurs lavages doux en PBS + Ca^2+ + Mg^2+ , les plaques sont séchées à 37°C et 100 µl de SDS (Sigma, 1% en eau distillée) sont ajoutés par puits. La plaque est laissée 1 heure à température ambiante à l'abri de la lumière pour permettre la dissolution complète du lysat cellulaire. La plaque est ensuite lue au lecteur ELISA (Labsystems) à 550 nm après 15 secondes d'agitation. Le blanc de densité optique (OD) est fait sur une rangée de 8 cupules n'ayant reçu que 50 µl de la solution de violet cristal puis ayant été traitées comme les autres. • Dans la seconde technique, les cellules reçoivent 50 µl de rouge neutre à 0,3% (R.A.L.) qui est pinocyté par les macrophages vivants. Après 2 heures d'incubation, le milieu est enlevé et les cellules sont lavées doucement avec 200 µl de PBS + Ca^2+ + Mg^2+. Les cellules restantes sont ensuite lysées avec 100 µl de SDS et la plaque est mise à 4°C pendant 1 heure pour permettre un relargage complet du colorant. La plaque est ensuite lue au lecteur ELISA à 570 nm avec un filtre de référence de 630 nm après 15 secondes d'agitation. Le blanc de DO est fait sur une colonne de 8 cupules n'ayant reçu que le colorant puis ayant été traitées comme les autres.
Pour la réalisation de cet essai, AVF1 a été préparé de la façon suivante : 1 g a été dissout dans 5 ml de D-MEM sans rouge de phénol. Cette solution à 20% a été stérilisée sur 0,22 µm (Minisart, Sartorius), le pH contrôlé (7,5), aliquotée sous 1 ml et conservée à +4°C. Au moment de l'emploi, cette solution a été diluée afin d'obtenir les concentrations finales désirées.

[1] = ROUGE NEUTRE, second experiment, AVF1 1 10^-7 %
[2] = ROUGE NEUTRE, second experiment, AVF1 1 10^-8 %
[3] = ROUGE NEUTRE, second experiment, AVF1 1 10^-9 %
[4] = ROUGE NEUTRE, second experiment, AVF1 1 10^-10 %
[5] = ROUGE NEUTRE, second experiment, AVF1 5 10^-7 %
[6] = ROUGE NEUTRE, second experiment, AVF1 5 10^-8 %
[7] = ROUGE NEUTRE, second experiment, AVF1 5 10^-9 %
[8] = ROUGE NEUTRE, second experiment, AVF1 5 10^-10 %
[9] = ROUGE NEUTRE, second experiment, AVF1 10^-6 %
[10] = VIOLET CRISTAL, second experiment, AVF1 1 10^-7 %
[11] = VIOLET CRISTAL, second experiment, AVF1 1 10^-8 %
[12] = VIOLET CRISTAL, second experiment, AVF1 1 10^-9 %
[13] = VIOLET CRISTAL, second experiment, AVF1 1 10^-10 %
[14] = VIOLET CRISTAL, second experiment, AVF1 5 10^-7 %
[15] = VIOLET CRISTAL, second experiment, AVF1 5 10^-8 %
[16] = VIOLET CRISTAL, second experiment, AVF1 5 10^-9 %
[17] = VIOLET CRISTAL, second experiment, AVF1 5 10^-10 %
[18] = VIOLET CRISTAL, second experiment, AVF1 10^-6 %

## CC(C)(C)c1cc(C(=O)OCCOCCOCCOCCOCCOCCOCCOCCO)cc(C(C)(C)C)c1O [AVF1, 3,5-di-t-butyl-4-hydroxybenzoate d'octaoxyéthylèneglycol]
RAW 264.7 macrophages after 24 heures de culture, non-toxic from this concentration downwards
  n'est plus toxique à partir de: ≤ 10^-6%
ROUGE NEUTRE, AVF1 0,5 %
  DO/ml moyenne sur 4 puis ± écart type: 0 DO/ml
  Pourcentage de survie par rapport au témoin cellules en milieu seul: 0%
ROUGE NEUTRE, AVF1 1 10^-2 %
  DO/ml moyenne sur 4 puis ± écart type: 0 DO/ml
  Pourcentage de survie par rapport au témoin cellules en milieu seul: 6%
ROUGE NEUTRE, AVF1 1 10^-3 %
  DO/ml moyenne sur 4 puis ± écart type: 0 DO/ml
  Pourcentage de survie par rapport au témoin cellules en milieu seul: 0%
ROUGE NEUTRE, AVF1 1 10^-4 %
  DO/ml moyenne sur 4 puis ± écart type: 0,010 ± 0,002 DO/ml
  Pourcentage de survie par rapport au témoin cellules en milieu seul: 1%
ROUGE NEUTRE, AVF1 1 10^-5 %
  DO/ml moyenne sur 4 puis ± écart type: 0,060 ± 0,034 DO/ml
  Pourcentage de survie par rapport au témoin cellules en milieu seul: 41%
ROUGE NEUTRE, AVF1 1 %
  DO/ml moyenne sur 4 puis ± écart type: 0 DO/ml
  Pourcentage de survie par rapport au témoin cellules en milieu seul: 0%
ROUGE NEUTRE, AVF1 5 10^-3 %
  DO/ml moyenne sur 4 puis ± écart type: 0 DO/ml
  Pourcentage de survie par rapport au témoin cellules en milieu seul: 3%
ROUGE NEUTRE, AVF1 5 10^-4 %
  DO/ml moyenne sur 4 puis ± écart type: 0 DO/ml
  Pourcentage de survie par rapport au témoin cellules en milieu seul: 0%
ROUGE NEUTRE, AVF1 5 10^-5 %
  DO/ml moyenne sur 4 puis ± écart type: 0,023 ± 0,003 DO/ml
  Pourcentage de survie par rapport au témoin cellules en milieu seul: 16%
ROUGE NEUTRE, AVF1 5 10^-6 %
  DO/ml moyenne sur 4 puis ± écart type: 0,476 ± 0,034 DO/ml
  Pourcentage de survie par rapport au témoin cellules en milieu seul: 70%
[1]
  DO/ml moyenne sur 4 puis ± écart type: 0,605 ± 0,024 DO/ml
  Pourcentage de survie par rapport au témoin cellules en milieu seul: 95%
[2]
  DO/ml moyenne sur 4 puis ± écart type: 0,601 ± 0,121 DO/ml
  Pourcentage de survie par rapport au témoin cellules en milieu seul: 95%
[3]
  DO/ml moyenne sur 4 puis ± écart type: 0,594 ± 0,083 DO/ml
  Pourcentage de survie par rapport au témoin cellules en milieu seul: 93%
[4]
  DO/ml moyenne sur 4 puis ± écart type: 0,609 ± 0,053 DO/ml
  Pourcentage de survie par rapport au témoin cellules en milieu seul: 96%
[5]
  DO/ml moyenne sur 4 puis ± écart type: 0,652 ± 0,089 DO/ml
  Pourcentage de survie par rapport au témoin cellules en milieu seul: 100%
[6]
  DO/ml moyenne sur 4 puis ± écart type: 0,575 ± 0,040 DO/ml
  Pourcentage de survie par rapport au témoin cellules en milieu seul: 90%
[7]
  DO/ml moyenne sur 4 puis ± écart type: 0,545 ± 0,015 DO/ml
  Pourcentage de survie par rapport au témoin cellules en milieu seul: 86%
[8]
  DO/ml moyenne sur 4 puis ± écart type: 0,573 ± 0,030 DO/ml
  Pourcentage de survie par rapport au témoin cellules en milieu seul: 90%
[9]
  DO/ml moyenne sur 4 puis ± écart type: 0,602 ± 0,059 DO/ml
  Pourcentage de survie par rapport au témoin cellules en milieu seul: 95%
VIOLET CRISTAL, AVF1 0,5 %
  DO/ml moyenne sur 4 puis ± écart type: 0,118 ± 0,027 DO/ml
  Pourcentage de survie par rapport au témoin cellules en milieu seul: 6%
VIOLET CRISTAL, AVF1 1 10^-2 %
  DO/ml moyenne sur 4 puis ± écart type: 0,118 ± 0,027 DO/ml
  Pourcentage de survie par rapport au témoin cellules en milieu seul: 6%
VIOLET CRISTAL, AVF1 1 10^-3 %
  DO/ml moyenne sur 4 puis ± écart type: 0,117 ± 0,027 DO/ml
  Pourcentage de survie par rapport au témoin cellules en milieu seul: 8%
VIOLET CRISTAL, AVF1 1 10^-4 %
  DO/ml moyenne sur 4 puis ± écart type: 0,180 ± 0,016 DO/ml
  Pourcentage de survie par rapport au témoin cellules en milieu seul: 9%
VIOLET CRISTAL, AVF1 1 10^-5 %
  DO/ml moyenne sur 4 puis ± écart type: 0,259 ± 0,033 DO/ml
  Pourcentage de survie par rapport au témoin cellules en milieu seul: 12%
VIOLET CRISTAL, AVF1 1 %
  DO/ml moyenne sur 4 puis ± écart type: 0,172 ± 0,030 DO/ml
  Pourcentage de survie par rapport au témoin cellules en milieu seul: 8%
VIOLET CRISTAL, AVF1 5 10^-3 %
  DO/ml moyenne sur 4 puis ± écart type: 0,061 ± 0,017 DO/ml
  Pourcentage de survie par rapport au témoin cellules en milieu seul: 3%
VIOLET CRISTAL, AVF1 5 10^-4 %
  DO/ml moyenne sur 4 puis ± écart type: 0,156 ± 0,010 DO/ml
  Pourcentage de survie par rapport au témoin cellules en milieu seul: 7%
VIOLET CRISTAL, AVF1 5 10^-5 %
  DO/ml moyenne sur 4 puis ± écart type: 0,216 ± 0,034 DO/ml
  Pourcentage de survie par rapport au témoin cellules en milieu seul: 10%
VIOLET CRISTAL, AVF1 5 10^-6 %
  DO/ml moyenne sur 4 puis ± écart type: 1,129 ± 0,069 DO/ml
  Pourcentage de survie par rapport au témoin cellules en milieu seul: 54%
[10]
  DO/ml moyenne sur 4 puis ± écart type: 0,960 ± 0,070 DO/ml
  Pourcentage de survie par rapport au témoin cellules en milieu seul: 86%
[11]
  DO/ml moyenne sur 4 puis ± écart type: 1,128 ± 0,043 DO/ml
  Pourcentage de survie par rapport au témoin cellules en milieu seul: 100%
[12]
  DO/ml moyenne sur 4 puis ± écart type: 1,010 ± 0,059 DO/ml
  Pourcentage de survie par rapport au témoin cellules en milieu seul: 91%
[13]
  DO/ml moyenne sur 4 puis ± écart type: 0,934 ± 0,050 DO/ml
  Pourcentage de survie par rapport au témoin cellules en milieu seul: 84%
[14]
  DO/ml moyenne sur 4 puis ± écart type: 1,051 ± 0,041 DO/ml
  Pourcentage de survie par rapport au témoin cellules en milieu seul: 94%
[15]
  DO/ml moyenne sur 4 puis ± écart type: 1,089 ± 0,051 DO/ml
  Pourcentage de survie par rapport au témoin cellules en milieu seul: 98%
[16]
  DO/ml moyenne sur 4 puis ± écart type: 0,970 ± 0,062 DO/ml
  Pourcentage de survie par rapport au témoin cellules en milieu seul: 87%
[17]
  DO/ml moyenne sur 4 puis ± écart type: 1,000 ± 0,089 DO/ml
  Pourcentage de survie par rapport au témoin cellules en milieu seul: 90%
[18]
  DO/ml moyenne sur 4 puis ± écart type: 0,991 ± 0,078 DO/ml
  Pourcentage de survie par rapport au témoin cellules en milieu seul: 89%
Conclusion of first toxicity experiment (Tableaux III, IV), toxic down to this concentration
  toxique jusqu'à la concentration de: ≥ 5 x 10^-5%
Conversion of 10^-5 %
  hautement toxique jusqu'à: ~100 nM
Toxic down to this concentration
  hautement toxique jusqu'à: ≥ 10^-5%
